# How the values were obtained:
# Format in all cases: in vivo
# [1] = tested on: Pyricularia oryzae (Rice); settings: 100 ppm a.i. foliar spray or root drench (approx. 40 ppm in dry soil), one or two days before inoculation
# [2] = tested on: Septoria nodorum (Wheat); experiment: Foliar fungal disease test on plants: Septoria nodorum (Wheat); settings: 100 ppm a.i. foliar spray or root drench (approx. 40 ppm in dry soil), one or two days before inoculation
# Procedure: (§1) The compounds were tested against a variety of foliar fungal diseases of plants. The technique employed was as follows.
# (§2) The plants were grown in John Innes Potting Compost (No 1 or 2) in 4 cm diameter minipots. The test compounds were formulated either by bead milling with aqueous DISPERSOL T or as a solution in acetone or acetone/ethanol which was diluted to the required concentration immediately before use. […] The sprays were applied to maximum retention and the root drenches to a final concentration equivalent to approximately 40 ppm a.i. in dry soil. TWEEN 20 was added to give a final concentration of 0.05% when the sprays were applied to cereals.
# (§3) For most of the tests the compounds were applied to the soil (roots) or to the foliage (by spraying) one or two days before the plant was inoculated with the disease. An exception was the test on Erysiphe graminis in which the plants were inoculated 24 hours before treatment. Foliar pathogens were applied by spray as zoosporangial suspensions onto the leaves of test plants. After inoculation, the plants were put into an appropriate environment to allow infection to proceed and then incubated until the disease was ready for assessment. The period between inoculation and assessment varied from four to fourteen days according to the disease and environment.
# (§4) The disease level present (i.e. leaf area covered by actively sporulating disease) on each of the treated plants was recorded using the following assessment scale:
# (§5) Each assessment was then expressed as a percentage of the level of disease present on the untreated control plants. This calculated value is referred to as a POCO (Percentage of Control) value. An example of a typical calculation is as follows:
# (§6) Disease level on untreated control=90
# (§7) Disese level on treated plant=30 [formula]
# (§8) This calculated POCO value is then rounded to the nearest of the values in the 9-point assessment scale shown above. In this particular example, the POCO value would be rounded to 30. If the calculated POCO falls exactly mid-way between two of the points, it is rounded to the lower of the two values.
# [3] = tested on: Erysiphe graminis tritici (Wheat); experiment: Foliar fungal disease test on plants: Erysiphe graminis tritici (Wheat); settings: 100 ppm a.i. foliar spray or root drench (approx. 40 ppm in dry soil); plants inoculated 24 hours before treatment
# Procedure: as §1, §2, §3, §4, §5, §6, §7, §8
# [4] = tested on: Puccinia recondita (Wheat); experiment: Foliar fungal disease test on plants: Puccinia recondita (Wheat)
# Procedure: as §1
# The plants were grown in John Innes Potting Compost (No 1 or 2) in 4 cm diameter minipots. The test compounds were formulated either by bead milling with aqueous DISPERSOL T or as a solution in acetone or acetone/ethanol which was diluted to the required concentration immediately before use. The formulations (100 ppm active ingredient) were sprayed on to the foliage or applied to the roots of the plants in the soil. The sprays were applied to maximum retention and the root drenches to a final concentration equivalent to approximately 40 ppm a.i. in dry soil. TWEEN 20 was added to give a final concentration of 0.05% when the sprays were applied to cereals.
# as §3, with “For most of the tests the compounds were applied to the soil (roots) or to the foliage (by spraying) one or two days before the plant was inoculated with the disease.” left out
# as §4, §5, §6, §7, §8
# [5] = tested on: Plasmopara viticola (Vines); experiment: Foliar fungal disease test on plants: Plasmopara viticola (Vines); settings: 100 ppm a.i. foliar spray or root drench (approx. 40 ppm in dry soil), one or two days before inoculation
# Procedure: as §1, §2, §3, §4, §5, §6, §7, §8
# [6] = tested on: Phytophthora infestans (Tomatoes); settings: 100 ppm a.i. foliar spray or root drench (approx. 40 ppm in dry soil), one or two days before inoculation
# [7] = tested on: Thanatephorus cucumeries (Rice); experiment: Foliar fungal disease test on plants: Thanatephorus cucumeries (Rice); settings: 100 ppm a.i. foliar spray or root drench (approx. 40 ppm in dry soil), one or two days before inoculation
# Procedure: as §1, §2, §3, §4, §5, §6, §7, §8
# [8] = tested on: Venturia inaequalis (Apples); experiment: Foliar fungal disease test on plants: Venturia inaequalis (Apples); settings: 100 ppm a.i. foliar spray or root drench (approx. 40 ppm in dry soil), one or two days before inoculation
# Procedure: as §1, §2, §3, §4, §5, §6, §7, §8
# [9] = 100 ppm a.i. foliar spray or root drench (approx. 40 ppm in dry soil), one or two days before inoculation
# [10] = 100 ppm a.i. foliar spray or root drench, plants inoculated with Puccinia recondita 48 hours before treatment
SMILES,"POCO (Percentage of Control) disease level, Pyricularia oryzae (Rice) [1]","POCO (Percentage of Control) disease level, Septoria nodorum (Wheat) [2]","POCO (Percentage of Control) disease level, Erysiphe graminis tritici (Wheat) [3]","POCO (Percentage of Control) disease level, Puccinia recondita (Wheat) [4, 9]","POCO (Percentage of Control) disease level, Plasmopara viticola (Vines) [5]","POCO (Percentage of Control) disease level, Phytophthora infestans (Tomatoes) [6]","POCO (Percentage of Control) disease level, Thanatephorus cucumeries (Rice) [7]","POCO (Percentage of Control) disease level, Venturia inaequalis (Apples) [8]","POCO (Percentage of Control) disease level, Puccinia recondita (Wheat) [4, 10]"
COC=C(C(=O)OC)c1ccccc1COC(=O)Nc1cccc(OC)c1 [7 (1)],0 (0 = 0% disease present),90 (90 and 94 = 60.1-100% disease present),5 (5 = 3.1-5% disease present),10 (10 = 5.1-10% disease present),60 (60 = 30.1-60% disease present),90 (90 and 94 = 60.1-100% disease present),60 (60 = 30.1-60% disease present),,
COC=C(C(=O)OC)c1ccccc1COC(=S)Nc1ccc([N+](=O)[O-])cc1 [9 (6)],20 (20 and 24 = 10.1-20% disease present),90 (90 and 94 = 60.1-100% disease present),90 (90 and 94 = 60.1-100% disease present),90 (90 and 94 = 60.1-100% disease present),90 (90 and 94 = 60.1-100% disease present),,90 (90 and 94 = 60.1-100% disease present),,
COC=C(C(=O)OC)c1ccccc1COC(=O)Nc1ccccc1[N+](=O)[O-] [15 (1)],5 (5 = 3.1-5% disease present),0 (0 = 0% disease present),,,0 (0 = 0% disease present),3 (3 = 1.1-3% disease present),,0 (0 = 0% disease present),90+ (90 and 94 = 60.1-100% disease present)
COC=C(C(=O)OC)c1ccccc1COC(=S)Nc1ccccc1SC [21 (6)],0 (0 = 0% disease present),0 (0 = 0% disease present),3 (3 = 1.1-3% disease present),0 (0 = 0% disease present),0 (0 = 0% disease present),,0 (0 = 0% disease present),,
COC=C(C(=O)OC)c1ccccc1COC(=O)Nc1ccccc1C#N [29 (1)],0 (0 = 0% disease present),60 (60 = 30.1-60% disease present),5 (5 = 3.1-5% disease present),,20 (20 and 24 = 10.1-20% disease present),,5 (5 = 3.1-5% disease present),0 (0 = 0% disease present),30+ (30 = 20.1-30% disease present)
COC=C(C(=O)OC)c1ccccc1COC(=O)N(C)c1ccccc1C#N [29 (2)],0 (0 = 0% disease present),30 (30 = 20.1-30% disease present),0 (0 = 0% disease present),,0 (0 = 0% disease present),,30 (30 = 20.1-30% disease present),0 (0 = 0% disease present),20+ (20 and 24 = 10.1-20% disease present)
